Experiment [1] concerns the target NDM-1 (Klebsiella pneumoniae, UniProt C7C422). The experiment in a line: biochemical. Type of experiment: biochemical.
Experiment [2] has as its target IMP-1 (Serratia marcescens, UniProt P52699). Kind of experiment: biochemical. Type of experiment: biochemical.
In experiment [3] the target is VIM-1 (Pseudomonas aeruginosa (strain ATCC 15692 / DSM 22644 / CIP 104116 / JCM 14847 / LMG 12228 / 1C / PRS 101 / PAO1), UniProt A0A0F7KYQ8). The experiment in a line: Enzyme activity: determination of IC50, fluorescence assay with CCF2-FA substrate (VIM-1). Type of experiment: biochemical. The note with it: CCF2-FA substrate.
Experiment [4] has as its system Escherichia coli expressing NDM-1 (CLB30016). Kind of experiment: Antibiotic potentiation activity: synergistic concentration (MITC95) with imipenem, OD600 growth. Type of experiment: cell-based. The note with it: (CLB30016, NDM-1), 95% growth inhibition. The gist of the method:
(§1)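 Absorbance after a 22–24 h, 35 °C incubation served as the read-out. Wells held bacteria (saline suspension diluted 1:100 into 1.1× CAMHB), imipenem at 4 μg/ml final or optionally 1 μg/ml, and test compound.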

Experiment [5] relates to Klebsiella pneumoniae expressing VIM-1 (IHMA599644). The description is as above. The note with it: Klebsiella pneumoniae IHMA599644 (VIM-1), 95% growth inhibition. Type of experiment: cell-based. The gist of the method: as §1
Experiment [6] relates to Serratia marcescens expressing IMP-1 (CL5741). Described as above. Type of experiment: cell-based. The note with it: Serratia marcescens CL5741 (IMP-1), 95% growth inhibition. The gist of the method:
as §1

Where [7] appears, read: NDM-1 enzyme, CCF2-FA substrate, read-out: NDM-1 IC50.
[8] abbreviates: IMP-1 enzyme, CCF2-FA substrate, read-out: IMP-1 IC50.
Where [9] appears, read: VIM-1 enzyme, read-out: VIM-1 IC50.

The values below come from patent US9708336B2, “Metallo-beta-lactamase inhibitors” (priority 2014, dated 2017).

Each structure is given as a SMILES string. Read-outs that look alike come from different tables or passages of the source.

What is called IC50 is the concentration needed to halve the response being measured.

Chain of IMP-1 (P52699 whole entry, looked up): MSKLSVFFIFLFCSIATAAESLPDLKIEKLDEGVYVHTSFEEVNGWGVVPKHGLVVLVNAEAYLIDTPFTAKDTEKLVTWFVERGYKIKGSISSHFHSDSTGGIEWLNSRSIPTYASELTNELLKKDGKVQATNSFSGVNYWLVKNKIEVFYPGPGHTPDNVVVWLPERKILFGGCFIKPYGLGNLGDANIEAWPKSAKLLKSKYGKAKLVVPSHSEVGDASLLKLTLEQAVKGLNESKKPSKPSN
Chain of NDM-1 (C7C422 whole entry, looked up, species assumed): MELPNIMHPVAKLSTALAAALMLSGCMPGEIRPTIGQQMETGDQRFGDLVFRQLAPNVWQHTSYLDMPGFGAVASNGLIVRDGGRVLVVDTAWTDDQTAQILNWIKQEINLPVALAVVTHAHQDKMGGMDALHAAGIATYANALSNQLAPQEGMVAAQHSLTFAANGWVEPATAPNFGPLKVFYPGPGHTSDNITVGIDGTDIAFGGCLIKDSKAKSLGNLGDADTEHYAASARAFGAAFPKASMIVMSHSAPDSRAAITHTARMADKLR

As for `NS(=O)(=O)c1c(C(F)(F)F)ccc([C@H]2CC[C@@H](O)CC2)c1-c1nnn[nH]1` [Example 495], the results for the IC50 in experiment [1] (setting [7]), in experiment [2] (setting [8]) and in experiment [3] (setting [9]) were 1.87 nM, 4.26 nM and 22.1 nM, respectively. The “Escherichia coli MITC95” value in experiment [4] was 2.344 µM. The “Klebsiella pneumoniae MITC95” value in experiment [5] was 25 µM. For the same compound, the “Serratia marcescens MITC95” value in experiment [6] came to 0.5859 µM.
In the case of `NS(=O)(=O)c1c(C(F)(F)F)ccc([C@H]2CC[C@H](O)CC2)c1-c1nnn[nH]1` [Example 496], the IC50 in experiment [1] (setting [7]) was 0.506 nM; in experiment [2] (setting [8]) it was 1.09 nM; in experiment [3] (setting [9]), 0.397 nM. Besides, the “Escherichia coli MITC95” value in experiment [4] worked out at 1.172 µM. For the same compound, the “Klebsiella pneumoniae MITC95” value in experiment [5] was determined as 3.125 µM. Also, in experiment [6], the “Serratia marcescens MITC95” value is 0.3906 µM.
Turning to `NCC1(N)CCC(c2ccc(C(F)(F)F)c(S(N)(=O)=O)c2-c2nnn[nH]2)CC1` (stereo not drawn) [Example 497, 3-(4-Amino-4-(aminomethyl)cyclohexyl)-2-(1H-tetrazol-5-yl)-6-(trifluoromethyl)benzenesulfonamide], the 50% inhibitory concentration (IC50) amounted to 3.06 nM in experiment [1] (setting [7]); 25.8 nM in experiment [2] (setting [8]); 59.5 nM in experiment [3] (VIM-1 IC50, VIM-1 enzyme). The “Escherichia coli MITC95” value in experiment [4] came out at 0.5859 µM. In experiment [5], the “Klebsiella pneumoniae MITC95” value stood at 6.25 µM. Further, in experiment [6], the “Serratia marcescens MITC95” value amounted to 0.3906 µM.
On to `NCC[C@H]1CC[C@@H](c2ccc(C(F)(F)F)c(S(N)(=O)=O)c2-c2nnn[nH]2)CC1` [Example 498, 3-(cis 4-(2-aminoethyl)cyclohexyl)-2-(1H-tetrazol-5-yl)-6-(trifluoromethyl)benzenesulfonamide], for which the IC50 in experiment [1] (setting [7]) is 2.15 nM; in experiment [2] (setting [8]) it was 5.5 nM; in experiment [3] (VIM-1 IC50, VIM-1 enzyme), 6.37 nM. Also, in experiment [4], the “Escherichia coli MITC95” value is 0.3906 µM. For the same compound, in experiment [5], the “Klebsiella pneumoniae MITC95” value was 4.688 µM. Moreover, the “Serratia marcescens MITC95” value in experiment [6] came out at 0.1953 µM.
Regarding `NCC[C@H]1CC[C@H](c2ccc(C(F)(F)F)c(S(N)(=O)=O)c2-c2nnn[nH]2)CC1` [Example 499, 3-(trans 4-(2-aminoethyl)cyclohexyl)-2-(1H-tetrazol-5-yl)-6-(trifluoromethyl)benzenesulfonamide], the 50% inhibitory concentration (IC50) in experiment [1] (setting [7]) is 1.93 nM; in experiment [2] (setting [8]) it was 7.04 nM; in experiment [3] (VIM-1 IC50, VIM-1 enzyme) it was 0.328 nM. In addition, the “Escherichia coli MITC95” value in experiment [4] came out at 0.7813 µM. The “Klebsiella pneumoniae MITC95” value in experiment [5] amounted to 1.172 µM. In addition, the “Serratia marcescens MITC95” value in experiment [6] is 0.1953 µM.
`NC[C@H]1CC[C@@H](c2ccc(C(F)(F)F)c(S(N)(=O)=O)c2-c2nnn[nH]2)CC1` [Example 500, 3-(cis 4-(Aminomethyl)cyclohexyl)-2-(1H-tetrazol-5-yl)-6-(trifluoromethyl)benzenesulfonamide]: the concentration for half-maximal inhibition (IC50) in experiment [1] (setting [7]) is 3.52 nM; in experiment [2], 9.86 nM; in experiment [3] (setting [9]) it was 12.2 nM. Moreover, the “Escherichia coli MITC95” value in experiment [4] came out at 2.344 µM. In addition, the “Klebsiella pneumoniae MITC95” value in experiment [5] was 31.25 µM. In addition, the “Serratia marcescens MITC95” value in experiment [6] was determined as 1.563 µM.
On to `NC[C@H]1CC[C@H](c2ccc(C(F)(F)F)c(S(N)(=O)=O)c2-c2nnn[nH]2)CC1` [Example 501, 3-(trans 4-(aminomethyl)cyclohexyl)-2-(1H-tetrazol-5-yl)-6-(trifluoromethyl)benzenesulfonamide], for which the IC50 is 1.52 nM in experiment [1] (setting [7]), 5.39 nM in experiment [2] and 0.516 nM in experiment [3] (setting [9]). In addition, the “Escherichia coli MITC95” value in experiment [4] stood at 1.172 µM. Besides, the “Klebsiella pneumoniae MITC95” value in experiment [5] amounted to 1.563 µM. Besides, the “Serratia marcescens MITC95” value in experiment [6] amounted to 1.563 µM.
Turning to `N=C(N)NC[C@H]1CC[C@@H](c2ccc(C(F)(F)F)c(S(N)(=O)=O)c2-c2nnn[nH]2)CC1` [Example 502, 3-(cis 4-(guanidinomethyl)cyclohexyl)-2-(1H-tetrazol-5-yl)-6-(trifluoromethyl)benzenesulfonamide], the IC50 amounted to 0.52 nM in experiment [1], 1.19 nM in experiment [2] (setting [8]) and 1.44 nM in experiment [3] (setting [9]). Also, the “Escherichia coli MITC95” value in experiment [4] is 1.563 µM. In addition, the “Klebsiella pneumoniae MITC95” value in experiment [5] is 9.375 µM. Further, the “Serratia marcescens MITC95” value in experiment [6] came out at 1.563 µM.
